Measurements taken from patent US20080261994A1, “CYCLOPROPANE COMPOUNDS AND PHARMACEUTICAL USE THEREOF” (Japan Tobacco Inc., priority 2003, published 2008).
pIC50: −log10 of the molar value. Where two headings read alike, the source gives them in different places.

What was measured:
Type in all cases: biochemical
aggrecanase-1 = target: T1, aggrecanase-1 (Homo sapiens, UniProt O75173); experiment: Aggrecanase-1 inhibitory action (Particle Assay, GAG release from aggrecan-containing polyacrylamide particles)
T1 sequence (O75173 213-837): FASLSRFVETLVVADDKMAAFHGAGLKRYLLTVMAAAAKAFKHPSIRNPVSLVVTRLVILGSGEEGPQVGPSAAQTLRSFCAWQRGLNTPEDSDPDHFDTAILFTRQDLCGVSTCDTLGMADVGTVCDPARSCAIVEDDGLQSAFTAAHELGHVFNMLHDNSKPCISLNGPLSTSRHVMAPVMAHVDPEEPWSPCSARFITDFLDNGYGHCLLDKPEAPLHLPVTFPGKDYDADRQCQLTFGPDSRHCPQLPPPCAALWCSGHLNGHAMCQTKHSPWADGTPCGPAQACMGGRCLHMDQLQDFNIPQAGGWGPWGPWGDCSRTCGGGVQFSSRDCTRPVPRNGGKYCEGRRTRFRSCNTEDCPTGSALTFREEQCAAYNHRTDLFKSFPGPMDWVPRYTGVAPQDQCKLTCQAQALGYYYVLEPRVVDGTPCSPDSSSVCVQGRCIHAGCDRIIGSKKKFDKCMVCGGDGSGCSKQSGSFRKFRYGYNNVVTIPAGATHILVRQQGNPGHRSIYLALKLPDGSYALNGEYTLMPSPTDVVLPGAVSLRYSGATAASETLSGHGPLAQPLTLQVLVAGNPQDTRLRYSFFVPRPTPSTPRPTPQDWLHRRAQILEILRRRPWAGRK
Outline: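 Enzyme and compound incubated with aggrecan-containing polyacrylamide particles in Tris-HCl buffer at 37° C for 15 h. Released GAG in supernatant measured with 1,9-dimethylmethylene blue at 595 nm against chondroitin sulfate standard; % inhibition from enzyme-free and inhibitor-free wells, reported as TC50 (μM).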

MMP-1 = target: T2, MMP-1 (Homo sapiens, UniProt P03956); experiment: MMP-1 inhibitory action (Type I collagen Activity Measurement kit, FITC-labeled collagen type I)
T2 sequence (P03956 100-469): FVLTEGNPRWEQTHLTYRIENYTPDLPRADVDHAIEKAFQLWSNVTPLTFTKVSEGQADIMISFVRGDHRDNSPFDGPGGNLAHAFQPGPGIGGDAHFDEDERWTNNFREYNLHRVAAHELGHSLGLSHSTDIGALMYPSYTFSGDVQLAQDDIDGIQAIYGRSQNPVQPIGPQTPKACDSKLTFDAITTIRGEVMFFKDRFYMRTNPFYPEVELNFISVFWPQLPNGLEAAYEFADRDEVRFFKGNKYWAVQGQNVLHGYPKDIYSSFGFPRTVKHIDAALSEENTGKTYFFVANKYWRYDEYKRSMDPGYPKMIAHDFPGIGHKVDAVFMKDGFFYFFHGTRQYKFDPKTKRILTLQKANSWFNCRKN

Recombinant Human MMP-13 = target: T3, Recombinant Human MMP-13 (Homo sapiens, UniProt P45452); experiment: MMP-13 inhibitory activity (MMP-13 specific fluorescent substrate with quencher)
T3 construct: purchased R&D systems 511-MM
Outline: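 Recombinant human MMP-13 with test compound, reaction started with quenched fluorogenic peptide 7-MCA-Pro-CHA-Gly-NVal-His-Ala-DPA in Tris-HCl buffer, 1 h at 25 °C, stopped with acetic acid. Fluorescence at Ex 325/Em 405 nm; % inhibition versus enzyme-free and inhibitor-free wells, reported as IC50 (μM).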

[1] = Experimental Example 1, read-out: IC50 AG1
[2] = Experimental Example 2, read-out: IC50 MMP1
[3] = Experimental Example 3, read-out: IC50 MMP13
[4] = aggrecanase-1 inhibitory action, read-out: IC50 AG1 (Experimental Example 1)
[5] = MMP-1 inhibitory action, FITC-labeled collagen type I, 37° C. for 3 hr, read-out: IC50 MMP1 (Experimental Example 2)
[6] = Recombinant Human MMP-13, fluorescent substrate, 25° C. for 1 h, read-out: IC50 MMP13 (Experimental Example 3)

| SMILES | pIC50 (aggrecanase-1; [1]) | pIC50 (MMP-1; [2]) | pIC50 (Recombinant Human MMP-13; [3]) | pIC50 (aggrecanase-1; [4]) | pIC50 (MMP-1; [5]) | pIC50 (Recombinant Human MMP-13; [6]) |
| --- | --- | --- | --- | --- | --- | --- |
| C[C@]1(c2ccccc2)C[C@@]1(NS(=O)(=O)c1ccc(-c2ccc(C#N)c(F)c2)s1)C(=O)O [Example 2-593] | > 6.00 | ≤ 6.00 | > 6.00 |  |  |  |
| CC1(c2ccc(F)cc2)CC1(NS(=O)(=O)c1ccc(-c2cc(C(F)(F)F)on2)s1)C(=O)O (stereo not drawn) [Example 2-339] | > 7.00 | ≤ 6.00 | > 6.00 |  |  |  |
| O=C(O)[C@]1(NS(=O)(=O)c2ccc(-c3cc(C(F)(F)F)no3)s2)C[C@@H]1c1ccccc1 [Example 2-171] |  |  |  | > 6.00 | ≤ 5.00 | > 6.00 |
| O=C(O)C1(NS(=O)(=O)c2ccc(-c3ccc(Cl)cc3)cc2)CC1c1cccc(OCCn2ccnc2)c1 (stereo not drawn) [Example 1-83] |  |  |  | > 6.00 | ≤ 6.00 | > 7.00 |
| CC1[C@H](c2ccccc2)[C@]1(NS(=O)(=O)N1CCN(c2ccc(Cl)cc2)C(=O)C1)C(=O)O (stereo partly drawn) [Example 2-502] | ≤ 6.00 | ≤ 6.00 | ≤ 6.00 |  |  |  |
| C[C@]1(c2ccccc2)C[C@@]1(NS(=O)(=O)c1ccc2c(c1)Cc1cc(Br)ccc1-2)C(=O)O [Example 2-100] |  |  |  | > 7.00 | > 6.00 | > 7.00 |
| CN(C)C(=O)NCC1(c2ccccc2)CC1(NS(=O)(=O)c1ccc(-c2ccc(Cl)cc2)s1)C(=O)O (stereo not drawn) [Example 2-378] | > 6.00 | ≤ 6.00 | > 6.00 |  |  |  |
| CC1[C@H](c2ccccc2)[C@]1(NS(=O)(=O)c1ccc(-c2ccc(Cl)cc2F)s1)C(=O)O (stereo partly drawn) [Example 2-407] | > 7.00 | > 6.00 | > 7.00 |  |  |  |
| O=C(O)C1(NS(=O)(=O)c2ccc(-c3ccc(Cl)cc3)s2)CC1(COCCO)c1ccccc1 (stereo not drawn) [Example 2-347] | > 7.00 | ≤ 5.00 | > 6.00 |  |  |  |
| CCC1C(c2ccccc2)C1(NS(=O)(=O)c1ccc(-c2cc(C(F)(F)F)on2)s1)C(=O)O (stereo not drawn) [Example 2-299] | > 7.00 | > 7.00 | > 7.00 |  |  |  |
| O=C(Cc1cccc(C2CC2(NS(=O)(=O)c2ccc(-c3cc(C(F)(F)F)on3)s2)C(=O)O)c1)N[C@H]1CC[C@H](O)CC1 (stereo partly drawn) [Example 2-233] |  |  |  | > 6.00 | ≤ 6.00 | > 7.00 |
| O=C(O)C1(NS(=O)(=O)c2ccc(-c3ccc(Cl)cc3)s2)CC1c1cccc(CNc2cccnc2)c1 (stereo not drawn) [Example 2-32] |  |  |  | > 7.00 | ≤ 5.00 | > 7.00 |
| O=C(c1ccc(Cl)cc1)c1ccc(S(=O)(=O)N[C@@]2(C(=O)O)C[C@@H]2c2ccccc2)s1 [Example 2-307] | ≤ 6.00 | ≤ 5.00 | ≤ 6.00 |  |  |  |
| O=C(O)C1(NS(=O)(=O)c2ccc(-c3ccc(Cl)cc3)s2)CC1c1cccc(OCc2cccnc2)c1 (stereo not drawn) [Example 1-107] |  |  |  | > 7.00 | ≤ 6.00 | > 7.00 |
| CN1CCN(c2ccc(C3CC3(NS(=O)(=O)c3ccc(-c4ccc(Cl)cc4)s3)C(=O)O)cc2)CC1 (stereo not drawn) [Example 2-247] |  |  |  | ≤ 5.00 | ≤ 5.00 | ≤ 5.00 |
| C[C@@H]1[C@H](c2ccccc2)[C@]1(NS(=O)(=O)c1ccc(-c2cc(C(C)(F)F)on2)s1)C(=O)O [Example 2-9, (1S,2R,3R)-1-{5-[5-(1,1-difluoro-ethyl)-isoxazol-3-yl]-thiophene-2-sulfonylamino}-2-methyl-3-phenyl-cyclopropanecarboxylic acid] |  |  |  | > 7.00 | > 7.00 | > 7.00 |
| O=C(O)C1(NS(=O)(=O)c2ccc(-c3ccc(Cl)cc3)s2)CC1Cn1nnc2ccccc2c1=O (stereo not drawn) [Example 2-47] |  |  |  | ≤ 6.00 | ≤ 5.00 | > 6.00 |
| CC1C(c2ccccc2)C1(NS(=O)(=O)c1ccc(-c2ccc(Cl)cc2)s1)C(=O)O (stereo not drawn) [Example 2-237] |  |  |  | > 7.00 | ≤ 6.00 | > 7.00 |
